Holding throughout (type): functional
Assay [1] concerns the target T1, Peroxisome proliferator-activated receptor alpha (Homo sapiens, UniProt Q07869).
T1 sequence (Q07869 whole entry): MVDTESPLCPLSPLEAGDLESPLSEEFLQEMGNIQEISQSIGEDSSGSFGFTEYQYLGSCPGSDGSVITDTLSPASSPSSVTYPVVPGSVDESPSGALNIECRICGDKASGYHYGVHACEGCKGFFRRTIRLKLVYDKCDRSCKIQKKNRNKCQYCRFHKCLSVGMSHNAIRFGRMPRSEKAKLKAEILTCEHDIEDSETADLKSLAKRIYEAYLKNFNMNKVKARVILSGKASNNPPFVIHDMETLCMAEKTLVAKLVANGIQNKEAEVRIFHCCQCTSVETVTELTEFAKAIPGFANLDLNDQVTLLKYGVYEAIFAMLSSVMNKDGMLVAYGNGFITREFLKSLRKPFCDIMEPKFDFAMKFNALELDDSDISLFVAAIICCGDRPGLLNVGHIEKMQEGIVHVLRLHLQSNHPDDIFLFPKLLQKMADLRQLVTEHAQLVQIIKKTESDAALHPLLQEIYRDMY
In words: Agonist activity at human PPARalpha assessed as transactivation activity.

The target in assay [2] is T2, Peroxisome proliferator-activated receptor delta (Homo sapiens, UniProt Q03181).
T2 sequence (Q03181 whole entry): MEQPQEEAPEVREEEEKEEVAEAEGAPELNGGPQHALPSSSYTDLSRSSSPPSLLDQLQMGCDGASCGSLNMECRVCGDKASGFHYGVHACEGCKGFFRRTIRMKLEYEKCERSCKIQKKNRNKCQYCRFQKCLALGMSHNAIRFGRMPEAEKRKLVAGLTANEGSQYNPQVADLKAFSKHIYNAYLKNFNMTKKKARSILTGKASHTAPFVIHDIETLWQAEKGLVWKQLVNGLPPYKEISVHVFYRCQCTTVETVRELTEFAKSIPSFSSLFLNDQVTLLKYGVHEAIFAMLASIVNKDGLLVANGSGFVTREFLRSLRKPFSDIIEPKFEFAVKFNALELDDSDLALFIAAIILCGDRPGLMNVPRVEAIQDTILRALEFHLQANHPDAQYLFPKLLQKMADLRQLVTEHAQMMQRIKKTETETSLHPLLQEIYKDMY
In words: Agonist activity at human PPARdelta assessed as transactivation activity.

In assay [3] the target is T3, Peroxisome proliferator-activated receptor gamma (Homo sapiens, UniProt P37231).
T3 sequence (P37231 whole entry): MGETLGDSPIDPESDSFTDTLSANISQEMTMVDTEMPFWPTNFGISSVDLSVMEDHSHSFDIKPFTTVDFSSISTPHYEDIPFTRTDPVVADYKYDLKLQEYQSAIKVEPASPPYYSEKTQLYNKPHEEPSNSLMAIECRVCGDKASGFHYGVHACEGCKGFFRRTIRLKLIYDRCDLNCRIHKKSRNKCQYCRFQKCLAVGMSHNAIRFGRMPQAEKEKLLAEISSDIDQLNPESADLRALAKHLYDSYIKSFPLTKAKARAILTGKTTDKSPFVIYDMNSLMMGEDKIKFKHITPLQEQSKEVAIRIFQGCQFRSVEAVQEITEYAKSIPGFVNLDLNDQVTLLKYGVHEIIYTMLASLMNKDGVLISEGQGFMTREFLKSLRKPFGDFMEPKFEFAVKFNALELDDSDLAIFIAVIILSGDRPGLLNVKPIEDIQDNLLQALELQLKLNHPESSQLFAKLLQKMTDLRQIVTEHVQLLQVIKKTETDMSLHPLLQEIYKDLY
In words: Agonist activity at N-terminal His-tagged human PPARgamma expressed in Escherichia coli BL21 assessed as transactivation activity.

Molecules are shown by their SMILES.

As to `CC[C@@H](Cc1ccc(OC)c(CNC(=O)c2ccc3ccc4cccc5ccc2c3c45)c1)C(=O)O`, the EC50 in assay [1] was 12 nM; in assay [2], 43 nM; in assay [3] it was “Not Active”.

A word on the EC50: it is the midpoint of the concentration-response curve.
